From patent US9302999B2, “Substituted triazoles as herbicides” (E. I. DU PONT DE NEMOURS AND COMPANY, priority 2012, dated 2016)

Columns and labels:
Format in all cases: in vivo
[1] = test system: nightshade (eastern black nightshade, Solanum ptycanthum); test: Test C pre-/postemergence: nightshade; details: Preemergence
In short: (§1)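 Preemergence on seeds in loam/sand, postemergence on 2–18 cm (1–4-leaf) plants in peat-based medium; compounds in non-phytotoxic solvent with surfactant. After 13–15 days in greenhouse, visual rating versus controls, 0 (no effect) to 100 (complete control).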

corn (Zea mays) = test: Test C pre-/postemergence: corn
In short: as §1

[2] = test system: canarygrass (Phalaris minor); test: Test C postemergence: canarygrass
In short: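 Crop and weed plants were grown in peat-vermiculite medium and treated postemergence at the 1- to 4-leaf stage (2-18 cm tall). After 13-15 days in a greenhouse, each species was rated visually against untreated controls on a 0-100 scale (0 no effect, 100 complete control).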

[3] = test system: cocklebur (common cocklebur, Xanthium strumarium); test: Test C pre-/postemergence: cocklebur
In short: as §1

[4] = test system: velvetleaf (Abutilon theophrasti); test: Test C pre-/postemergence: velvetleaf
In short: as §1

[5] = test system: morningglory (Ipomoea coccinea); test: Test C pre-/postemergence: morningglory
In short: as §1

[6] = test system: common (oilseed) sunflower (Helianthus annuus); test: Test C pre-/postemergence: sunflower; details: Preemergence
In short: as §1

[7] = test system: galium (catchweed bedstraw, Galium aparine); test: Test C pre-/postemergence: galium
In short: as §1

[8] = test system: lambsquarters (Chenopodium album); test: Test C pre-/postemergence: lambsquarters
In short: as §1

[9] = test system: winter wheat (Triticum aestivum); test: Test C pre-/postemergence: winter wheat
In short: as §1

rice (Oryza sativa) = test: Test B flooded paddy: rice; details: Flood; 250 g ai/ha; applied to paddy water at 2-leaf stage; visually evaluated after 13 to 15 days
In short: (§2)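 Flooded-pot test: compound dosed into 3 cm of standing water above soil when plants had two leaves. Visual control ratings (0–100) versus untreated plants after 13–15 d.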

[10] = test system: sedge, umbrella (small-flower umbrella sedge Cyperus difformis); test: Test B flooded paddy: sedge, umbrella; details: Flood; 250 g ai/ha; applied to paddy water at 2-leaf stage; visually evaluated after 13 to 15 days
In short: as §2

[11] = 31 g ai/ha, scale of 0 to 100, 0 is no effect, 100 is complete control
[12] = 62 g ai/ha, scale of 0 to 100, 0 is no effect, 100 is complete control
[13] = 125 g ai/ha, scale 0 to 100, 0 no effect, 100 complete control
[14] = 250 g ai/ha, scale 0 to 100, 0 no effect, 100 complete control
[15] = Postemergence, 31 g ai/ha, scale 0 to 100 (0 no effect, 100 complete control)
[16] = Postemergence, 62 g ai/ha, scale 0 to 100 (0 no effect, 100 complete control)
[17] = Postemergence, 125 g ai/ha, scale 0 to 100, 0 no effect, 100 complete control
[18] = Postemergence, 250 g ai/ha, scale 0 to 100
[19] = Preemergence, 31 g ai/ha, scale of 0 to 100, 0 is no effect, 100 is complete control
[20] = Preemergence, 62 g ai/ha, scale 0 to 100, 0 no effect, 100 complete control
[21] = Preemergence, 125 g ai/ha, scale 0 to 100, 0 no effect, 100 complete control
[22] = Preemergence, 250 g ai/ha, scale 0 to 100, 0 no effect, 100 complete control
[23] = Preemergence, 62 g ai/ha, scale of 0 to 100, 0 is no effect, 100 is complete control

SMILES: Cc1nn(-c2ccc(C(F)(F)F)cc2)nc1Oc1ccnc(C(F)(F)F)c1 [Compound 120]
- Plant response rating, Nightshade [1, 11]: 95
- Plant response rating, Nightshade [1, 12]: 95
- Plant response rating, Nightshade [1, 13]: 95
- Plant response rating, Nightshade [1, 14]: 95
- Plant response rating, Corn (corn (Zea mays); [15]): 5
- Plant response rating, Corn (corn (Zea mays); [16]): 10
- Plant response rating, Corn (corn (Zea mays); [17]): 10
- Plant response rating, Corn (corn (Zea mays); [18]): 10
- Plant response rating, Corn (corn (Zea mays); [19]): 0
- Plant response rating, Corn (corn (Zea mays); [20]): 5
- Plant response rating, Corn (corn (Zea mays); [21]): 25
- Plant response rating, Corn (corn (Zea mays); [22]): 50
- Plant response rating, Canarygrass ([2]; 31 g ai/ha, scale 0 to 100 (0 no effect, 100 complete control)): 25
- Plant response rating, Canarygrass ([2]; 62 g ai/ha, scale 0 to 100 (0 no effect, 100 complete control)): 35
- Plant response rating, Canarygrass [2, 13]: 60
- Plant response rating, Canarygrass ([2]; 250 g ai/ha, scale 0 to 100): 90
- Plant response rating, Cocklebur [3, 15]: 45
- Plant response rating, Cocklebur [3, 16]: 50
- Plant response rating, Cocklebur [3, 17]: 65
- Plant response rating, Cocklebur [3, 18]: 65
- Plant response rating, Cocklebur [3, 19]: 0
- Plant response rating, Cocklebur [3, 20]: 0
- Plant response rating, Cocklebur [3, 22]: 5
- Plant response rating, Velvetleaf [4, 15]: 20
- Plant response rating, Velvetleaf [4, 16]: 45
- Plant response rating, Velvetleaf [4, 17]: 55
- Plant response rating, Velvetleaf [4, 18]: 65
- Plant response rating, Velvetleaf [4, 19]: 5
- Plant response rating, Velvetleaf [4, 23]: 15
- Plant response rating, Velvetleaf [4, 21]: 35
- Plant response rating, Velvetleaf [4, 22]: 100
- Plant response rating, Morningglory [5, 15]: 60
- Plant response rating, Morningglory [5, 16]: 60
- Plant response rating, Morningglory [5, 17]: 65
- Plant response rating, Morningglory [5, 18]: 98
- Plant response rating, Morningglory [5, 19]: 45
- Plant response rating, Morningglory [5, 23]: 45
- Plant response rating, Morningglory [5, 21]: 45
- Plant response rating, Morningglory [5, 22]: 90
- Plant response rating, Sunflower [6, 11]: 0
- Plant response rating, Sunflower [6, 12]: 0
- Plant response rating, Sunflower [6, 13]: 0
- Plant response rating, Sunflower [6, 14]: 5
- Plant response rating, Galium [7, 15]: 80
- Plant response rating, Galium [7, 16]: 80
- Plant response rating, Galium [7, 17]: 85
- Plant response rating, Galium [7, 19]: 98
- Plant response rating, Galium [7, 23]: 100
- Plant response rating, Galium [7, 21]: 100
- Plant response rating, Galium [7, 22]: 100
- Plant response rating, Lambsquarters [8, 15]: 100
- Plant response rating, Lambsquarters [8, 16]: 100
- Plant response rating, Lambsquarters [8, 17]: 100
- Plant response rating, Lambsquarters [8, 18]: 100
- Plant response rating, Lambsquarters [8, 19]: 85
- Plant response rating, Lambsquarters [8, 23]: 100
- Plant response rating, Lambsquarters [8, 21]: 100
- Plant response rating, Lambsquarters [8, 22]: 100
- Plant response rating, Wheat [9, 15]: 10
- Plant response rating, Wheat [9, 16]: 10
- Plant response rating, Wheat [9, 17]: 35
- Plant response rating, Wheat [9, 18]: 35
- Plant response rating, Wheat [9, 19]: 5
- Plant response rating, Wheat [9, 23]: 25
- Plant response rating, Wheat [9, 21]: 40
- Plant response rating, Wheat [9, 22]: 50

SMILES: Cc1nn(-c2ccc(F)cc2F)nc1Oc1ccnc(C(F)(F)F)c1 [Compound 146]
- Plant response rating, Rice (0 to 100 scale, 0 is no effect, 100 is complete control) (rice (Oryza sativa)): 35
- Plant response rating, Nightshade [1, 12]: 35
- Plant response rating, Nightshade [1, 13]: 90
- Plant response rating, Nightshade [1, 14]: 98
- Plant response rating, Corn (corn (Zea mays); [19]): 0
- Plant response rating, Corn (corn (Zea mays); [23]): 0
- Plant response rating, Corn (corn (Zea mays); [21]): 15
- Plant response rating, Corn (corn (Zea mays); [22]): 25
- Plant response rating, Cocklebur [3, 19]: 0
- Plant response rating, Cocklebur [3, 23]: 0
- Plant response rating, Cocklebur [3, 21]: 0
- Plant response rating, Cocklebur [3, 22]: 0
- Plant response rating, Velvetleaf [4, 19]: 0
- Plant response rating, Velvetleaf [4, 23]: 5
- Plant response rating, Velvetleaf [4, 21]: 15
- Plant response rating, Velvetleaf [4, 22]: 60
- Plant response rating, Morningglory [5, 19]: 35
- Plant response rating, Morningglory [5, 23]: 40
- Plant response rating, Morningglory [5, 21]: 45
- Plant response rating, Morningglory [5, 22]: 90
- Plant response rating, Sedge, Umbrella (0 to 100 scale, 0 is no effect, 100 is complete control) [10]: 80
- Plant response rating, Sunflower [6, 11]: 10
- Plant response rating, Sunflower [6, 12]: 20
- Plant response rating, Sunflower [6, 13]: 30
- Plant response rating, Sunflower [6, 14]: 35
- Plant response rating, Galium [7, 19]: 95
- Plant response rating, Galium [7, 23]: 95
- Plant response rating, Galium [7, 21]: 95
- Plant response rating, Galium [7, 22]: 100
- Plant response rating, Lambsquarters [8, 19]: 10
- Plant response rating, Lambsquarters [8, 23]: 40
- Plant response rating, Lambsquarters [8, 21]: 85
- Plant response rating, Lambsquarters [8, 22]: 95
- Plant response rating, Wheat [9, 23]: 0
- Plant response rating, Wheat [9, 21]: 0
- Plant response rating, Wheat [9, 22]: 10
